From ChEMBL document CHEMBL4507259 (2021)

Assays:
[1] = molecular target: Dual specificity protein kinase CLK1 (Homo sapiens) (UniProt P49759); details: Compound concentration 1000.0 nM
[2] = molecular target: Histamine H2 receptor (Homo sapiens) (UniProt P25021); assay: H2 (h) CEREP ligand profiling; details: filed as antagonist, Compound concentration 10.0 uM
[3] = molecular target: Prostaglandin E2 receptor EP2 subtype (Homo sapiens) (UniProt P43116); assay: EP2 (h) CEREP ligand profiling; details: filed as agonist, Compound concentration 10.0 uM
[4] = molecular target: MAP kinase-interacting serine/threonine-protein kinase 2 (Homo sapiens) (UniProt Q9HBH9); details: Compound concentration 1000.0 nM
[5] = molecular target: Serine/threonine-protein kinase tousled-like 2 (Homo sapiens) (UniProt Q86UE8); details: Compound concentration 1000.0 nM
[6] = molecular target: Serine/threonine-protein kinase Nek6 (Homo sapiens) (UniProt Q9HC98); details: Compound concentration 1000.0 nM
[7] = molecular target: High affinity nerve growth factor receptor (Homo sapiens) (UniProt P04629); details: Compound concentration 1000.0 nM
[8] = molecular target: Serine/threonine-protein kinase Nek5 (Homo sapiens) (UniProt Q6P3R8); details: Compound concentration 1000.0 nM
[9] = molecular target: Serine/threonine-protein kinase B-raf (Homo sapiens) (UniProt P15056); details: Compound concentration 1000.0 nM
[10] = molecular target: Acetylcholinesterase (Homo sapiens) (UniProt P22303); assay: acetylcholinesterase (h) CEREP ligand profiling; details: Compound concentration 10.0 uM
[11] = molecular target: Histamine H1 receptor (Homo sapiens) (UniProt P35367); assay: H1 (h) CEREP ligand profiling; details: filed as antagonist, Compound concentration 10.0 uM
[12] = molecular target: Phosphatidylinositol 4,5-bisphosphate 3-kinase catalytic subunit beta isoform (Homo sapiens) (UniProt P42338); details: Compound concentration 1000.0 nM
[13] = molecular target: Mitogen-activated protein kinase kinase kinase kinase 4 (Homo sapiens) (UniProt O95819); details: Compound concentration 1000.0 nM
[14] = molecular target: Mitogen-activated protein kinase 6 (Homo sapiens) (UniProt Q16659); details: Compound concentration 1000.0 nM
[15] = test system: ALK tyrosine kinase receptor (Homo sapiens), Q9UM73 [L1196M]; details: Compound concentration 1000.0 nM
[16] = molecular target: Phosphatidylinositol 5-phosphate 4-kinase type-2 gamma (Homo sapiens) (UniProt Q8TBX8); details: Compound concentration 1000.0 nM
[17] = molecular target: Ribosomal protein S6 kinase alpha-1 (Homo sapiens) (UniProt Q15418); details: Compound concentration 1000.0 nM
[18] = molecular target: Membrane-associated tyrosine- and threonine-specific cdc2-inhibitory kinase (Homo sapiens) (UniProt Q99640); details: Compound concentration 1000.0 nM
[19] = molecular target: Tyrosine-protein kinase Mer (Homo sapiens) (UniProt Q12866); details: Compound concentration 1000.0 nM
[20] = molecular target: Serine/threonine-protein kinase N2 (Homo sapiens) (UniProt Q16513); details: Compound concentration 1000.0 nM
[21] = molecular target: Phosphatidylinositol 3-kinase catalytic subunit type 3 (Homo sapiens) (UniProt Q8NEB9); details: Compound concentration 1000.0 nM
[22] = molecular target: Mitogen-activated protein kinase kinase kinase 2 (Homo sapiens) (UniProt Q9Y2U5); details: Compound concentration 1000.0 nM
D(3) dopamine receptor = D(3) dopamine receptor (Homo sapiens, UniProt P35462); details: Compound concentration 10.0 uM
[23] = molecular target: Receptor-interacting serine/threonine-protein kinase 2 (Homo sapiens) (UniProt O43353); details: Compound concentration 1000.0 nM
[24] = molecular target: Serine/threonine-protein kinase RIO3 (Homo sapiens) (UniProt O14730); details: Compound concentration 1000.0 nM
[25] = molecular target: Serine/threonine-protein kinase PAK 5 (Homo sapiens) (UniProt Q9P286); details: Compound concentration 1000.0 nM
[26] = test system: Epidermal growth factor receptor (Homo sapiens), P00533 [T790M]; details: Compound concentration 1000.0 nM
[27] = test system: Receptor-type tyrosine-protein kinase FLT3 (Homo sapiens), P36888 [R834Q]; details: Compound concentration 1000.0 nM
[28] = molecular target: Tyrosine-protein kinase JAK1 (Homo sapiens) (UniProt P23458); details: Compound concentration 1000.0 nM
[29] = test system: Hepatocyte growth factor receptor (Homo sapiens), P08581 [Y1235D]; details: Compound concentration 1000.0 nM
[30] = test system: Tyrosine-protein kinase ABL1 (Homo sapiens), P00519 [T315I]; details: Compound concentration 1000.0 nM
[31] = molecular target: cAMP-dependent protein kinase catalytic subunit alpha (Homo sapiens) (UniProt P17612); details: Compound concentration 1000.0 nM
[32] = molecular target: Phosphatidylinositol 4,5-bisphosphate 3-kinase catalytic subunit delta isoform (Homo sapiens) (UniProt O00329); details: Compound concentration 1000.0 nM
[33] = molecular target: Muscarinic acetylcholine receptor M3 (Homo sapiens) (UniProt P20309); assay: M3 (h) CEREP ligand profiling; details: filed as antagonist, Compound concentration 10.0 uM
[34] = molecular target: RAC-gamma serine/threonine-protein kinase (Homo sapiens) (UniProt Q9Y243); details: Compound concentration 1000.0 nM
[35] = molecular target: Dual specificity tyrosine-phosphorylation-regulated kinase 1A (Homo sapiens) (UniProt Q13627); details: Compound concentration 1000.0 nM
[36] = molecular target: Tyrosine-protein kinase Fyn (Homo sapiens) (UniProt P06241); details: Compound concentration 1000.0 nM
[37] = molecular target: Glycogen synthase kinase-3 beta (Homo sapiens) (UniProt P49841); details: Compound concentration 1000.0 nM
[38] = molecular target: SRSF protein kinase 3 (Homo sapiens) (UniProt Q9UPE1); details: Compound concentration 1000.0 nM
[39] = test system: Phosphatidylinositol 4,5-bisphosphate 3-kinase catalytic subunit alpha isoform (Homo sapiens), P42336 [H1047Y]; details: Compound concentration 1000.0 nM
[40] = molecular target: Receptor tyrosine-protein kinase erbB-3 (Homo sapiens) (UniProt P21860); details: Compound concentration 1000.0 nM
[41] = molecular target: Cyclin-dependent kinase 2 homolog (Plasmodium falciparum (isolate 3D7)) (UniProt P61075); details: Compound concentration 1000.0 nM
[42] = molecular target: Tyrosine-protein kinase Yes (Homo sapiens) (UniProt P07947); details: Compound concentration 1000.0 nM
[43] = molecular target: Mitogen-activated protein kinase kinase kinase 4 (Homo sapiens) (UniProt Q9Y6R4); details: Compound concentration 1000.0 nM

Sequence of Serine/threonine-protein kinase B-raf (Homo sapiens) (P15056 whole entry): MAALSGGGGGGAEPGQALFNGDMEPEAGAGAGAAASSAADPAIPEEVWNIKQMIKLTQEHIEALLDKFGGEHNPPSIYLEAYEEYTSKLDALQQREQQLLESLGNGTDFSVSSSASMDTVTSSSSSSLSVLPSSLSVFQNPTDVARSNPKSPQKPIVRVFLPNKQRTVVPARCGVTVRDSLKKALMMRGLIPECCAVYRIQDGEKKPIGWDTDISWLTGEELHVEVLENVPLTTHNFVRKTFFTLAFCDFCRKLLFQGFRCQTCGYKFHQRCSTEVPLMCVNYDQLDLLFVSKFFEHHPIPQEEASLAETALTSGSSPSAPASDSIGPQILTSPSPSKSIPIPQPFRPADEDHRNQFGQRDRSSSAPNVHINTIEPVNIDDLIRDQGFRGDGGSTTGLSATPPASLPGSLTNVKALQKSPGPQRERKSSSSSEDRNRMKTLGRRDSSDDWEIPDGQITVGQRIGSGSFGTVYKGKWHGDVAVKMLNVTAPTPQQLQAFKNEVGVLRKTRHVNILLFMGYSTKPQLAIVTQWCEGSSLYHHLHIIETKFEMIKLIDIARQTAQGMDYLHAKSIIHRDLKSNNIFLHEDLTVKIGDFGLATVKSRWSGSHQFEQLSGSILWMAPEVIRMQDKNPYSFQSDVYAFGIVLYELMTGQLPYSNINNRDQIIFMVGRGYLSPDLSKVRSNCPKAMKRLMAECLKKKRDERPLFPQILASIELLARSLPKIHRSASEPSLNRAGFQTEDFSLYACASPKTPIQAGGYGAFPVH
Sequence of Tyrosine-protein kinase JAK1 (Homo sapiens) (P23458 whole entry): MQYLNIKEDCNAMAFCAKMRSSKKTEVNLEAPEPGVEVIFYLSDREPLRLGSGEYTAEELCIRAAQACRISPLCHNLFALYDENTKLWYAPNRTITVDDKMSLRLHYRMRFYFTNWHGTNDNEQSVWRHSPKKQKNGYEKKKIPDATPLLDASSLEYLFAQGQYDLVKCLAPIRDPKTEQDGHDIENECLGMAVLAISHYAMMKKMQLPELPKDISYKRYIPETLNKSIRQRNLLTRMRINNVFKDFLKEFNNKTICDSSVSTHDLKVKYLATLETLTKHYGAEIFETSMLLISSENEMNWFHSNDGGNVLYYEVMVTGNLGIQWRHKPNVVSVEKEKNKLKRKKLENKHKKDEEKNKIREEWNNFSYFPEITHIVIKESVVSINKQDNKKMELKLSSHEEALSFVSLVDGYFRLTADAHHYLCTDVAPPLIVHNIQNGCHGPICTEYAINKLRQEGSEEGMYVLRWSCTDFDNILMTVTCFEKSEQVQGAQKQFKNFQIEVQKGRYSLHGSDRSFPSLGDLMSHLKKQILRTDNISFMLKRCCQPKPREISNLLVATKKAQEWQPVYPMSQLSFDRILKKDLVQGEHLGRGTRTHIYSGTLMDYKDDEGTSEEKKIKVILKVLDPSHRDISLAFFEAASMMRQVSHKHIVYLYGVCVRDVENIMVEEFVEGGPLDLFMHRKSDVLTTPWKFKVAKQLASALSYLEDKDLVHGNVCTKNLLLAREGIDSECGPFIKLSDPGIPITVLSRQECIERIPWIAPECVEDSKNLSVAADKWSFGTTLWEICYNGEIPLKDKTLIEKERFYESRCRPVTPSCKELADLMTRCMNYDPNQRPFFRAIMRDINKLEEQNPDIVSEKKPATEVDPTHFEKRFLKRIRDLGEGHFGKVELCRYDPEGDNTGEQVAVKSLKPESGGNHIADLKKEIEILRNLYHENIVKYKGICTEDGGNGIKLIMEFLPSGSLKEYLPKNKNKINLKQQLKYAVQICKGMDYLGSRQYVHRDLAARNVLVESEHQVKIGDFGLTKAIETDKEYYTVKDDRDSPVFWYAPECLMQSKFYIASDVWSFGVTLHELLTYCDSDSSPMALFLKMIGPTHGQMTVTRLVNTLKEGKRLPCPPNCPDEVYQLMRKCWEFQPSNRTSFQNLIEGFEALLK
Sequence of Acetylcholinesterase (Homo sapiens) (P22303 whole entry): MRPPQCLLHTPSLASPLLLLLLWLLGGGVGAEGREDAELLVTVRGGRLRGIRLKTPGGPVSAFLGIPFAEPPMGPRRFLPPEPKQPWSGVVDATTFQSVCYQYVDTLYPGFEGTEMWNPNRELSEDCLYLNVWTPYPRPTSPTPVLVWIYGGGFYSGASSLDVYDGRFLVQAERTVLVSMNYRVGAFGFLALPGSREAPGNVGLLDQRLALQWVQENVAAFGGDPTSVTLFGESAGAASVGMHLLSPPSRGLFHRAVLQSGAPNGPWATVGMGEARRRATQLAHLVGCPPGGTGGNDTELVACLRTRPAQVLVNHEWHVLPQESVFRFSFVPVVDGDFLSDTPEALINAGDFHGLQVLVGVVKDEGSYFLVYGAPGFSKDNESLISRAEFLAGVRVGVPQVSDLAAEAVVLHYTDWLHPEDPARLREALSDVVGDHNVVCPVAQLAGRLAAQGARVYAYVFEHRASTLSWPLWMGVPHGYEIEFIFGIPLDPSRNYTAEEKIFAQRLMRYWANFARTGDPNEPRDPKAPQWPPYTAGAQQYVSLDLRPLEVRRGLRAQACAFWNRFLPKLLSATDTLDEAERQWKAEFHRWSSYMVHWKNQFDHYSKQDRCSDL
Sequence of Phosphatidylinositol 3-kinase catalytic subunit type 3 (Homo sapiens) (Q8NEB9 whole entry): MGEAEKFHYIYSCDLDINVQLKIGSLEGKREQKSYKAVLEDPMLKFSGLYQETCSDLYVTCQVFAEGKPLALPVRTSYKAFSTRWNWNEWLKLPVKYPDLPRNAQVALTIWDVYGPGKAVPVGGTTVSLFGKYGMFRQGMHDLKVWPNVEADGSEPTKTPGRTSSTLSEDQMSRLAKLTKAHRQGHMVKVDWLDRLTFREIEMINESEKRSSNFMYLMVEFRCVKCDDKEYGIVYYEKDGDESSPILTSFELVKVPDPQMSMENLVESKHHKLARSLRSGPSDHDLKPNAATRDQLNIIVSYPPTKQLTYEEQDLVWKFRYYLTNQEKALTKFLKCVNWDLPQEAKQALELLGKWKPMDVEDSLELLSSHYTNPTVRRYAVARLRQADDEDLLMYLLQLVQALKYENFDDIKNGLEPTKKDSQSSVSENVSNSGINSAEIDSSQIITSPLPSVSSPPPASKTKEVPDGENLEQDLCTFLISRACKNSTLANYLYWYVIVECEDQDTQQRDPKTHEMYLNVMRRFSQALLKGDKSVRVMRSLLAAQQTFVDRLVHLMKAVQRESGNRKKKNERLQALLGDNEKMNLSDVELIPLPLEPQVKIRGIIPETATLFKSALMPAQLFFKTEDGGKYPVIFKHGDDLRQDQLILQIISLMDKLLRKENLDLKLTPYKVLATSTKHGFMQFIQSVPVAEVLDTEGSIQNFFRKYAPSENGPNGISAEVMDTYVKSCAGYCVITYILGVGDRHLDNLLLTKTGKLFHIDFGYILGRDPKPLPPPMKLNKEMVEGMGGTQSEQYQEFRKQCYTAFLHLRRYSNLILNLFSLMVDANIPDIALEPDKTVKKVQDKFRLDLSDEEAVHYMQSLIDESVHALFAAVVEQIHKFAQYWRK
Sequence of D(3) dopamine receptor (P35462 whole entry): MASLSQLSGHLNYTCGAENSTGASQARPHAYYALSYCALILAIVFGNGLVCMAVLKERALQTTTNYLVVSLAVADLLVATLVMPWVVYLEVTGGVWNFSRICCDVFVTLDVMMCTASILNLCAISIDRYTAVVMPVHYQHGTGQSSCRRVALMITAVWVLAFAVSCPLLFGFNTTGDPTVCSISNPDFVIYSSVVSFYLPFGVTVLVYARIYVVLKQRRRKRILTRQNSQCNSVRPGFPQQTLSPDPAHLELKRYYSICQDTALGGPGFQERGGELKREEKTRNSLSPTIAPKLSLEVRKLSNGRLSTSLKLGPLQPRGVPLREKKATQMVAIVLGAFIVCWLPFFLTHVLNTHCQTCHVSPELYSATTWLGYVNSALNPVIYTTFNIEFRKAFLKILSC
Sequence of Mitogen-activated protein kinase 6 (Homo sapiens) (Q16659 whole entry): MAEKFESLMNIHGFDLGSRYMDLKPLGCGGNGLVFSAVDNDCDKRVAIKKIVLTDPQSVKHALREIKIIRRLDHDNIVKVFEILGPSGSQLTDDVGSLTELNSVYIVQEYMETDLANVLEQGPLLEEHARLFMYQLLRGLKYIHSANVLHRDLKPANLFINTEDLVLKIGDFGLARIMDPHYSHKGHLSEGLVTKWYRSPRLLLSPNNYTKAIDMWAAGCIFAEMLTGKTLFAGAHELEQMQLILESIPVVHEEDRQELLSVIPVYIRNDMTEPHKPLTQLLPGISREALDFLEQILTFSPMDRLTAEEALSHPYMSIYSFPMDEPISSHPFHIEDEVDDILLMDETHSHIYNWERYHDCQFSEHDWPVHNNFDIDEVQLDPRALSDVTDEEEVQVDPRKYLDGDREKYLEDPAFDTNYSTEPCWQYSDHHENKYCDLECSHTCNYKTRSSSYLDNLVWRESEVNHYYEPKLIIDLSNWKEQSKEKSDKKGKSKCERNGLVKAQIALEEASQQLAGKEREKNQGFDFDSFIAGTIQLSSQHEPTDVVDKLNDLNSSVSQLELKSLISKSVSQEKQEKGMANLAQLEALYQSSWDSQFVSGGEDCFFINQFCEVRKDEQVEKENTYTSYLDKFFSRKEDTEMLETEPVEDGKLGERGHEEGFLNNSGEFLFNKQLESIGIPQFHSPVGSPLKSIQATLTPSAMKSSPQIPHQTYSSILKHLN
Sequence of Membrane-associated tyrosine- and threonine-specific cdc2-inhibitory kinase (Homo sapiens) (Q99640 whole entry): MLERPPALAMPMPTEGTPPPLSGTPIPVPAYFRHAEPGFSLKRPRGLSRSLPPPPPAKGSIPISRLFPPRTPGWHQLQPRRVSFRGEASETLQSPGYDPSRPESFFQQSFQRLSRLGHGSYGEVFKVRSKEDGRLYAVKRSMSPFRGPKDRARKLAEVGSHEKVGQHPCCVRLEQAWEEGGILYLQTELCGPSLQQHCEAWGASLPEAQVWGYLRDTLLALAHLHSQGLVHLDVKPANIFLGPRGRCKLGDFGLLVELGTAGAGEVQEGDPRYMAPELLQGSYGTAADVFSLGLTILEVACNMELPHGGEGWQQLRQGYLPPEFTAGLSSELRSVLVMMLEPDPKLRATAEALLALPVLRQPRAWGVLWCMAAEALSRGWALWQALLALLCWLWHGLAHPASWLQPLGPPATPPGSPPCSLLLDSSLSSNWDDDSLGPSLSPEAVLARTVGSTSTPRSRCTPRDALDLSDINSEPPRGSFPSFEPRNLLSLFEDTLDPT

CNC(=O)Nc1ccc2c(c1)[C@@]1(CC2)OC(=O)N(CC(=O)N(Cc2ccc(F)cc2)[C@@H](C)C(F)(F)F)C1=O [A-486]
active: residual activity [7] 41% | inhibition (D(3) dopamine receptor) 57.8%
inactive: residual activity [1] 82% | inhibition [2] 6% | inhibition [3] 10% | residual activity [4] 76% | residual activity [5] 100% | residual activity [6] 100% | residual activity [8] 95% | residual activity [9] 100% | inhibition [10] 8% | inhibition [11] 7% | residual activity [12] 97% | residual activity [13] 100% | residual activity [14] 97% | residual activity [15] 88% | residual activity [16] 100% | residual activity [17] 100% | residual activity [18] 92% | residual activity [19] 100% | residual activity [20] 100% | residual activity [21] 96% | residual activity [22] 100% | residual activity [23] 83% | residual activity [24] 100% | residual activity [25] 100% | residual activity [26] 73% | residual activity [27] 96% | residual activity [28] 85% | residual activity [29] 93% | residual activity [30] 86% | residual activity [31] 99% | residual activity [32] 100% | inhibition [33] 0% | residual activity [34] 94% | residual activity [35] 77% | residual activity [36] 79% | residual activity [37] 95% | residual activity [38] 100% | residual activity [39] 100% | residual activity [40] 81% | residual activity [41] 95% | residual activity [42] 85% | residual activity [43] 87%

CNC(=O)Nc1ccc2c(c1)CC[C@@]21OC(=O)N(CC(=O)N(Cc2ccc(F)cc2)[C@@H](C)C(F)(F)F)C1=O [A-485]
inactive: residual activity [1] 69% | inhibition [2] -9% | inhibition [3] 27% | residual activity [4] 82% | residual activity [5] 100% | residual activity [6] 86% | residual activity [7] 81% | residual activity [8] 100% | residual activity [9] 93% | inhibition [10] -1% | inhibition [11] 22% | residual activity [12] 94% | residual activity [13] 87% | residual activity [14] 100% | residual activity [15] 75% | residual activity [16] 93% | residual activity [17] 88% | residual activity [18] 74% | residual activity [19] 82% | residual activity [20] 97% | residual activity [21] 88% | residual activity [22] 100% | inhibition (D(3) dopamine receptor) 1.52% | residual activity [23] 100% | residual activity [24] 89% | residual activity [25] 100% | residual activity [26] 73% | residual activity [27] 92% | residual activity [28] 100% | residual activity [29] 81% | residual activity [30] 78% | residual activity [31] 100% | residual activity [32] 92% | inhibition [33] -5% | residual activity [34] 100% | residual activity [35] 64% | residual activity [36] 100% | residual activity [37] 82% | residual activity [38] 95% | residual activity [39] 91% | residual activity [40] 89% | residual activity [41] 91% | residual activity [42] 76% | residual activity [43] 89%
